Experiments:
NE [1] = assay: Bone marrow NE activity after repeated dosing, C57BL/6 mice; format: in vivo; settings: 7 days
Description: (§1) Briefly, animals were weighed and randomized into different treatment groups. In total, three different dosing levels of brensocatib were tested in each species and strain; each QD dosing level was equivalent to 1.5-times the matching daily BID dose. For BID dosing, the second daily dose was administered 8-h post the morning dose. C57BL/6 mice were dosed either BID or QD for 7 consecutive days at 0/0, 0.5/0.75, 2/3, and 20/30 mg/kg/day (BID/QD). BALB/c mice were dosed for 7 consecutive days at 0/0, 0.2/0.3, 2/3, and 20/30 mg/kg/day (BID/QD). SD rats were dosed for 9 consecutive days at 0/0, 0.2/0.3, 2/3, and 20/30 mg/kg/day (BID/QD). Wistar rats were dosed for 7 consecutive days at 0/0, 0.2/0.3, 2/3, and 20/30 mg/kg/day (BID/QD).
(§2) At the completion of the study, animals were sacrificed 16–24 h post their final dose. The hind limb bones (femurs and tibias) were collected at necropsy for bone marrow analysis of NSP activities by kinetic enzymatic assays ([Basso et al., 2022]). See section Quantification of Bone Marrow NSP Activities for details.
(§3) For the mice, each animal had the femurs and tibias of both hind limbs harvested. For the rat, the femur and tibia from a single hind limb per animal was harvested. Bones were kept on wet ice until processing for bone marrow collection. In brief, bone cutters were used to cut the epiphysis (knobby ends) off the long bones to expose the bone marrow filled cavity. Each bone cavity was then flushed with 5 mL/bone (mouse) or 10 mL/bone (rat) of ice-cold RPMI media through a […] and collected in a 50-mL conical tube. Cells were spun down at 2,500 × g at 4°C for 5 min and the supernatant was aspirated. After which, bone marrow cells were lysed with 1X red blood cell (RBC) lysis buffer (Abcam, ab204733) to eliminate contaminating RBCs and washed with PBS to remove any residual RBC lysis buffer. The resulting white blood cells (WBC) were subsequently lysed with 1% (v/v) Triton X-100 in PBS. Lysates were added to 96-well plates and stored at −80°C until NSP analyses.
(§4) Bone marrow lysates prepared as described above were diluted and plated onto 96-well assay plates to quantify NSP activities as described previously ([Basso et al., 2022]). Briefly, peptide substrates for NE (N-Methoxysuccinyl-Ala-Ala-Pro-Val-7-amido-4-methylcoumarin; Sigma; St. Louis, MO; Excitation/Emission at 350/450 nm), PR3 ((7-Methoxycoumarin-4-yl)acetyl-lysyl-(picolinoyl)-Tyr-Asp-Ala-Lys-Gly-Asp-N-3-(2-4-dinitrophenyl)-2-3-diaminopropyonyl-NH2); GenScript; Piscataway, NJ; Excitation/Emission at 340/430 nm), and CatG (N-Succinyl-Ala-Ala-Pro-Phe p nitroanilide; Sigma; Absorbance at 405 nm) were added at a final assay concentration of 100 μM, 40 μM, and 200 μM, respectively, and either fluorescence or absorbance was quantified using a Synergy microplate reader (BioTek; Winooski, VT). The specific NSP activity in each sample was calculated as the total activity minus the activity in the presence of a specific NSP inhibitor (if used), including elastase inhibitor (Abcam) for NE, sivelestat (Abcam) for PR3, and cathepsin G inhibitor I (Cayman Chemical; Ann Arbor, MI) for CatG. NSP concentrations were interpolated based on their activities relative to the standard curves created using active human NE protein (Sigma), active human PR3 protein (Sigma), and active human CatG protein (Sigma), respectively. Due to unavailability of commercial mouse and/or rat NE, PR3, and CatG proteins, the corresponding human proteins were used instead since their catalytic ability is considered to be conserved across species. A portion of each cell lysate sample was retained for protein quantification using a Pierce™ BCA Protein Assay Kit (Thermo Fisher). The NSP activities were normalized for the cell lysate protein concentrations.
(§5) The Pierce™ BCA Protein Assay Kit was used to measure the total protein of the samples after lysis to allow for subsequent normalization. […]

NE [2] = assay: Bone marrow NE activity after repeated dosing, Wistar rats; format: in vivo; settings: for Reduction of NE activity vs vehicle / Change From Vehicle Control (%) NE: 7 days
Description: as §1, §2, §3, §4, §5

PR3 = assay: PD recovery study, bone marrow PR3 activity, C57BL/6 mice; format: in vivo; settings: for Percent change from vehicle PR3: bone marrow
Description: (§6) A PD recovery study was performed in female C57BL/6 mice dosed BID for 8 consecutive days. Mice were dosed by oral gavage either with vehicle (0 mg/kg) or 5 mg/kg brensocatib (BID; 10 mg/kg/day). After 8 consecutive days of dosing, the animals were maintained without further treatment until prescribed sacrifice (days: 1, 3, 6, 8, and 10 days post final dose). Plasma was collected from animals during the first 24 h of dosing at −0.5 (half-hour prior to dosing), 1, 8, 9, and 24 h post initial dose. Note that the 8- and 24-h plasma samples were prior to the afternoon dose and prior to the second day dose, respectively. Plasma was used for PK analysis via LC-MS/MS. On prescribed days, animals were sacrificed, and the hind limb bones (femurs and tibias) were collected at necropsy for bone marrow analysis of NSP activities by kinetic enzymatic assays.
as §3, §4
(§7) The Pierce™ BCA Protein Assay Kit was used to measure the total protein of the samples after lysis to allow for subsequent normalization. The manufacturer’s instructions for use were followed when performing this assay on a portion of the sample lysates which were diluted in PBS, the same diluent as used for preparation of the standard. Plates were read on the Biotek Synergy plate reader with Gen5 software.

CatG = assay: PD recovery study, bone marrow CatG activity, C57BL/6 mice; format: in vivo; settings: for Percent change from vehicle CatG: bone marrow
Description: as §6, §3, §4, §7

[3] = parameters: method as in Chalmers et al., 2020; settings: Phase 2 trial in NCFBE (WILLOW, NCT03218917), compared to placebo; ref Chalmers et al., 2020; cited from earlier work
[4] = BID highest dose (20 mg/kg/day)
[5] = after 8 days of 5 mg/kg BID, curve fit with free min and max
[6] = 1 day recovery after 8 days of 5 mg/kg BID
[7] = 3 days recovery after 8 days of 5 mg/kg BID
[8] = 6 days recovery after 8 days of 5 mg/kg BID
[9] = 8 days recovery after 8 days of 5 mg/kg BID
[10] = 10 days recovery after 8 days of 5 mg/kg BID

Cn1c(=O)oc2ccc(-c3ccc(C[C@@H](C#N)NC(=O)[C@@H]4CNCCCO4)cc3)cc21 [brensocatib]
Reduction of NE activity vs vehicle (NE [1]; [4]): 85%
Reduction of NE activity vs vehicle (NE [1]; QD highest dose (30 mg/kg/day)): 71%
Change From Vehicle Control (%) NE (NE [1]; oral BID 0.5 mg/kg/day, 16 h post final dose): −20% (p = 0.1494)
Change From Vehicle Control (%) NE (NE [1]; oral BID 2 mg/kg/day, 16 h post final dose): −71% (p < 0.0001)
Change From Vehicle Control (%) NE (NE [1]; oral BID 20 mg/kg/day, 16 h post final dose): −85% (p < 0.0001)
Change From Vehicle Control (%) NE (NE [1]; oral QD 0.75 mg/kg/day, 24 h post final dose): −9% (p = 0.8092)
Change From Vehicle Control (%) NE (NE [1]; oral QD 3 mg/kg/day, 24 h post final dose): −55% (p < 0.0001)
Change From Vehicle Control (%) NE (NE [1]; oral QD 30 mg/kg/day, 24 h post final dose): −71% (p < 0.0001)
Reduction of NE activity vs vehicle (NE [2]; [4]): 19%
Reduction of NE activity vs vehicle (NE [2]; QD highest dose (30 mg/kg/day)): 19%
Combined BID and QD percent reduction, NE (NE [2]; highest dose level 20/30 (BID/QD) mg/kg/day): 19%
Change From Vehicle Control (%) NE (NE [2]; oral BID 0.2 mg/kg/day): −6% (p = 0.9661)
Change From Vehicle Control (%) NE (NE [2]; oral BID 2 mg/kg/day): −6% (p = 0.9676)
Change From Vehicle Control (%) NE (NE [2]; oral BID 20 mg/kg/day): −19% (p = 0.4767)
Change From Vehicle Control (%) NE (NE [2]; oral QD 0.3 mg/kg/day): +8% (p = 0.9636)
Change From Vehicle Control (%) NE (NE [2]; oral QD 3 mg/kg/day): +17% (p = 0.7823)
Change From Vehicle Control (%) NE (NE [2]; oral QD 30 mg/kg/day): −19% (p = 0.7283)
Recovery: Time to reach 50% recovery, PR3 (PR3; [5]): 1.4 days
Recovery: Time to reach 90% recovery, PR3 (PR3; [5]): 5.2 days
Recovery: Time to reach 95% recovery, PR3 (PR3; [5]): 6.2 days
Recovery: Time to reach 100% recovery, PR3 (PR3; [5]): 7.5 days
Percent change from vehicle PR3 (PR3; [6]): −63% (p < 0.0001)
Percent change from vehicle PR3 (PR3; [7]): −28% (p = 0.0024)
Percent change from vehicle PR3 (PR3; [8]): −14% (p = 0.3753)
Percent change from vehicle PR3 (PR3; [9]): +5% (p = 0.9691)
Percent change from vehicle PR3 (PR3; [10]): +16% (p = 0.1549)
Recovery: Time to reach 50% recovery, CatG (CatG; [5]): 3.3 days
Recovery: Time to reach 90% recovery, CatG (CatG; [5]): 5.2 days
Recovery: Time to reach 95% recovery, CatG (CatG; [5]): 5.5 days
Recovery: Time to reach 100% recovery, CatG (CatG; [5]): 5.8 days
Percent change from vehicle CatG (CatG; [6]): −93% (p < 0.0001)
Percent change from vehicle CatG (CatG; [7]): −60% (p < 0.0001)
Percent change from vehicle CatG (CatG; [8]): −14% (p = 0.2431)
Percent change from vehicle CatG (CatG; [9]): +26% (p = 0.0133)
Percent change from vehicle CatG (CatG; [10]): +38% (p < 0.0001)
time to first exacerbation [3]: prolonged
